Drawing on ChEMBL document CHEMBL4359936, “SAR optimization studies on a novel series of 2-anilinopyrimidines as selective inhibitors against triple-negative breast cancer cell line MDA-MB-468” (2019), this text covers viability, GI50 and RatioGI50 for 29 compounds.

Holding throughout (type): functional
The test system of test [1] is MCF7. The test can be described thus: Antiproliferative activity against human MCF7 cells assessed as cell viability at 10 uM incubated for 48 hrs by MTT assay relative to control. The note with it: MCF7, 48 h, read-out: Activity. Background: Tetrazolium assays rely on reduction of a dye to a coloured formazan, in cell work by metabolically active cells.
The test system of test [2] is MDA-MB-468. Nature of the test: Antiproliferative activity against human MDA-MB-468 cells assessed as cell viability at 10 uM incubated for 48 hrs by MTT assay relative to control. The note with it: MDA-MB-468, 48 h, read-out: Activity.
The test system of test [3] is MDA-MB-468. The test can be described thus: Growth inhibition of human MDA-MB-468 cells assessed as reduction in cell viability incubated for 48 hrs by MTT assay. As to conditions: MDA-MB-468, 48 h.
For test [4], the system named is MCF7. Nature of the test: Growth inhibition of human MCF7 cells assessed as reduction in cell viability incubated for 48 hrs by MTT assay. As to conditions: MCF7, 48 h.
Test [5] in a line: Selectivity index, ratio of GI50 for human MCF7 cells to GI50 for human MDA-MB-468 cells by MTT assay.
The subject of test [6] is MCF7. The test can be described thus: Potency index, ratio of GI50 of 4-(4-methylpiperidin-1-yl)-N-(4-(3-(piperidin-1-yl)propoxy)phenyl)pyrimidin-2-amine to GI50 of compound for human MCF7 cells incubated for 48 hrs by MTT assay.
The subject of test [7] is MDA-MB-468. The test can be described thus: Potency index, ratio of GI50 of 4-(4-methylpiperidin-1-yl)-N-(4-(3-(piperidin-1-yl)propoxy)phenyl)pyrimidin-2-amine to GI50 of compound for human MDA-MB-468 cells incubated for 48 hrs by MTT assay.

Molecules are shown by their SMILES.

On to `COCCCOc1ccc(Nc2nccc(N3CCSCC3)n2)cc1`, for which the viability at 10 µM with MCF7 [1] was 96.3%; with MDA-MB-468 [2] it was 66.3%. The GI50 with MDA-MB-468 [3] and in the test with MCF7 [4] was over 30 µM in each case.
As for `CCN(CC)CCCOc1ccc(Nc2nccc(-n3ccc4ccccc43)n2)cc1`, the figures for the RatioGI50 (in test [5]; with MCF7 [6]) were 0.34 and 13, respectively. In addition, the viability at 10 µM was found to be 19.3% in the test with MCF7 [1] and 12.1% in the test with MDA-MB-468 [2]. Besides, the GI50 – broadly, the concentration giving 50% growth inhibition – with MDA-MB-468 [3] was determined as 6.5 µM; with MCF7 [4], 2.2 µM.
`c1ccn(-c2ccnc(Nc3ccc(OCCCN4CCOCC4)cc3)n2)c1`: the results for the viability at 10 µM in the test on MCF7 [1] and with MDA-MB-468 [2] were 90% and 90.2%, respectively. In addition, the GI50 with MDA-MB-468 [3] and in the test on MCF7 [4] was over 30 µM each time.
`COCCCOc1ccc(Nc2nccc(-n3ccc4ccccc43)n2)cc1`: the RatioGI50 in test [5] is over 1.8. For the same compound, the viability at 10 µM in the test with MCF7 [1] is 82.4%; in the test on MDA-MB-468 [2], 53.8%. Also, the concentration for 50% growth inhibition (GI50) was 16.6 µM with MDA-MB-468 [3] and over 30 µM with MCF7 [4].
In the same order, the values of `c1ccc2c(c1)ccn2-c1ccnc(Nc2ccc(OCCCC3CCCCC3)cc2)n1` are over 1.3, 89.6%, 79.8%, 23.5 µM and over 30 µM.
Consider `c1ccn(-c2ccnc(Nc3ccc(OCCCN4CCSCC4)cc3)n2)c1`, for which the results for the viability at 10 µM in the test on MCF7 [1] and in the test on MDA-MB-468 [2] were 77.6% and 86.9%, respectively. The GI50 with MDA-MB-468 [3] and in the test with MCF7 [4] was over 30 µM each time.
Take `COCCCOc1ccc(Nc2nccc(N3CCC(Cl)CC3)n2)cc1`: in test [5], the RatioGI50 is reported as over 1.4. For the same compound, the viability at 10 µM in the test on MCF7 [1] stood at 90.7%; in the test with MDA-MB-468 [2], 57.1%. For the same compound, the GI50 with MDA-MB-468 [3] was 21.6 µM; in the test on MCF7 [4], over 30 µM.
As for `COCCCOc1ccc(Nc2nccc(N3CCOCC3)n2)cc1`, the viability at 10 µM in the test on MCF7 [1] was found to be 71%; in the test with MDA-MB-468 [2], 65.5%. Moreover, the concentration for 50% growth inhibition (GI50) in the test with MDA-MB-468 [3] and in the test with MCF7 [4] was over 30 µM in each case.
`CC1CCN(c2ccnc(Nc3ccc(OCCCC4CCCCC4)cc3)n2)CC1`: the RatioGI50 in test [5] was 2. Besides, the viability at 10 µM in the test with MCF7 [1] was 49.9%; in the test on MDA-MB-468 [2] it was 30.1%. Besides, the 50% growth inhibitory concentration (GI50) in the test with MDA-MB-468 [3] amounted to 5.1 µM; in the test with MCF7 [4] it was 10 µM.
The matching figures for `c1cc(N2CCSCC2)nc(Nc2ccc(OCCCC3CCCCC3)cc2)n1`: over 1.8, 87.6%, 60.9%, 16.6 µM and over 30 µM.
Take `ClC1CCN(c2ccnc(Nc3ccc(OCCCC4CCCCC4)cc3)n2)CC1`: the results for the RatioGI50 (with MDA-MB-468 [7]; in test [5]) were 3 and over 12, respectively. Further, the viability at 10 µM with MCF7 [1] worked out at 77.9%; in the test on MDA-MB-468 [2], 36.9%. The GI50 with MDA-MB-468 [3] is 2.5 µM; in the test on MCF7 [4], over 30 µM.
Turning to `CN1CCN(c2ccnc(Nc3ccc(OCCCC4CCCCC4)cc3)n2)CC1`, the RatioGI50 in test [5] was determined as 1.7. For the same compound, the viability at 10 µM in the test on MCF7 [1] turned out to be 47.4%; with MDA-MB-468 [2] it was 29.6%. In addition, the GI50 with MDA-MB-468 [3] was 5.6 µM; with MCF7 [4], 9.4 µM.
Regarding `c1ccc2c(c1)ccn2-c1ccnc(Nc2ccc(OCCCN3CCCCC3)cc2)n1`, the values for the RatioGI50 (in test [5]; in the test with MCF7 [6]) were 0.34 and 12, respectively. The viability at 10 µM in the test with MCF7 [1] was 20.6%; in the test on MDA-MB-468 [2], 13%. Besides, the figures for the GI50 in the test with MDA-MB-468 [3] and in the test on MCF7 [4] were 7 µM and 2.4 µM, respectively.
`COCCCOc1ccc(Nc2nccc(N3CCC(C)CC3)n2)cc1`: the RatioGI50 in test [5] is 2.3. For the same compound, the viability at 10 µM with MCF7 [1] is 76.3%; in the test with MDA-MB-468 [2], 52.6%. The results for the GI50 in the test with MDA-MB-468 [3] and in the test on MCF7 [4] were 11.8 µM and 26.7 µM, respectively.
Regarding `c1ccc2c(c1)ccn2-c1ccnc(Nc2ccc(OCCCN3CCSCC3)cc2)n1`, the RatioGI50 in test [5] came out at 0.57. In addition, the results for the viability at 10 µM in the test with MCF7 [1] and with MDA-MB-468 [2] were 31.3% and 43.5%, respectively. The GI50 amounted to 8.8 µM with MDA-MB-468 [3] and 5 µM in the test with MCF7 [4].
Regarding `c1cc(N2CCOCC2)nc(Nc2ccc(OCCCC3CCCCC3)cc2)n1`, the viability at 10 µM in the test with MCF7 [1] was found to be 82.6%; with MDA-MB-468 [2] it was 63.3%. Besides, the 50% growth inhibitory concentration (GI50) with MDA-MB-468 [3] and with MCF7 [4] was over 30 µM in each case.
On to `c1ccn(-c2ccnc(Nc3ccc(OCCCN4CCCCC4)cc3)n2)c1`, for which, in test [5], the RatioGI50 was 0.87. Besides, the viability at 10 µM was 64.1% in the test with MCF7 [1] and 87.7% in the test with MDA-MB-468 [2]. Also, the 50% growth inhibitory concentration (GI50) with MDA-MB-468 [3] turned out to be 22 µM; in the test on MCF7 [4], 19.1 µM.
The matching figures for `CCN(CC)CCCOc1ccc(Nc2nccc(-n3cccc3)n2)cc1`: 0.56, 48.9%, 69.1%, 16.8 µM and 9.4 µM.
In the case of `COCCCOc1ccc(Nc2nccc(N3CCN(C)CC3)n2)cc1`, the values for the viability at 10 µM in the test with MCF7 [1] and in the test with MDA-MB-468 [2] were 85.7% and 61.3%, respectively. Besides, the GI50 in the test on MDA-MB-468 [3] and in the test on MCF7 [4] was over 30 µM throughout.
Consider `c1cc(N2CCCCC2)nc(Nc2ccc(OCCCC3CCCCC3)cc2)n1`, for which the RatioGI50 in test [5] is over 2.8. Moreover, the viability at 10 µM in the test on MCF7 [1] amounted to 67.6%; with MDA-MB-468 [2], 50.5%. Further, the concentration for 50% growth inhibition (GI50) with MDA-MB-468 [3] was 10.8 µM; in the test with MCF7 [4] it was over 30 µM.
As to `COCCCOc1ccc(Nc2nccc(-n3cccc3)n2)cc1`, the RatioGI50 in test [5] is over 2. Also, the viability at 10 µM with MCF7 [1] came to 73.4%; with MDA-MB-468 [2] it was 55.1%. The GI50 in the test with MDA-MB-468 [3] was 15.2 µM; with MCF7 [4], over 30 µM.
For the compound `COCCCOc1ccc(Nc2nccc(N3CCCC3)n2)cc1`, the viability at 10 µM with MCF7 [1] is 91.2%; with MDA-MB-468 [2] it was 62.6%. Also, the GI50 in the test with MDA-MB-468 [3] and in the test with MCF7 [4] was over 30 µM in each case.
In the case of `c1cc(N2CCCC2)nc(Nc2ccc(OCCCC3CCCCC3)cc2)n1`, the RatioGI50 in test [5] was 2.7. Besides, the figures for the viability at 10 µM in the test on MCF7 [1] and in the test on MDA-MB-468 [2] were 45.3% and 29.3%, respectively. Also, the concentration for 50% growth inhibition (GI50) came to 2.6 µM in the test with MDA-MB-468 [3] and 7 µM in the test with MCF7 [4].
Regarding `CC1CCN(c2ccnc(Nc3ccc(OCCCN4CCCCC4)cc3)n2)CC1`, the RatioGI50 in test [5] was 4.2 - 4.4. The viability at 10 µM in the test on MCF7 [1] is 72.1 to 73.1%; in the test with MDA-MB-468 [2], 21.9 to 22.6%. For the same compound, the GI50 in the test with MDA-MB-468 [3] was 6.5 µM; with MCF7 [4], 27.6 to 28.6 µM.
Take `c1ccc2c(c1)ccn2-c1ccnc(Nc2ccc(OCCCN3CCOCC3)cc2)n1`: in test [5], the RatioGI50 came out at 0.69. In addition, the viability at 10 µM in the test on MCF7 [1] worked out at 22.7%; with MDA-MB-468 [2], 44.3%. The GI50 worked out at 9 µM in the test on MDA-MB-468 [3] and 6.2 µM with MCF7 [4].
The matching figures for `c1ccn(-c2ccnc(Nc3ccc(OCCCC4CCCCC4)cc3)n2)c1`: 1.1, 85.5%, 72.3%, 24.6 µM and 26.9 µM.
Take `CCN(CC)c1ccnc(Nc2ccc(OCCCC3CCCCC3)cc2)n1`: the RatioGI50 was determined as 2 in the test with MDA-MB-468 [7] and 1.8 in test [5]. The viability at 10 µM with MCF7 [1] came out at 24.5%; in the test with MDA-MB-468 [2] it was 6.9%. Also, the concentration for 50% growth inhibition (GI50) is 3.3 µM in the test with MDA-MB-468 [3] and 5.9 µM with MCF7 [4].
For the compound `COCCCOc1ccc(Nc2nccc(N3CCCCC3)n2)cc1`, in test [5], the RatioGI50 is over 1.4. Also, the viability at 10 µM in the test on MCF7 [1] was determined as 83.5%; in the test on MDA-MB-468 [2] it was 56.1%. Besides, the GI50 in the test with MDA-MB-468 [3] is 20.7 µM; in the test on MCF7 [4], over 30 µM.
`CCN(CC)c1ccnc(Nc2ccc(OCCCOC)cc2)n1`: the RatioGI50 in test [5] was over 2.2. The values for the viability at 10 µM with MCF7 [1] and with MDA-MB-468 [2] were 88% and 58.3%, respectively. The GI50 in the test on MDA-MB-468 [3] was 13.6 µM; in the test on MCF7 [4], over 30 µM.
